This is an account of results in article PMC6208908, “Field template-based design and biological evaluation of new sphingosine kinase 1 inhibitors” (Breast Cancer Research and Treatment, 2018).

The test system of one experiment is MDA-MB-231 cells. The experiment is described as follows: MTT cell viability / proliferation assay. Format: cell-based, human. The conditions noted are these: for IC50: Homo sapiens. The protocol: Cellular viability was measured using the 3-(4,5-dimethylthiazol-2-yl)-2,5-diphenyltetrazolium bromide (MTT; 5 mg/ml) colorimetric assay as already described.
Fig. 4 Effect of compounds SK-A to SK-F on breast cancer cell viability. MDA-MB-231 cells were incubated with 1, 2, 5 and 10 µM of compounds SK-A to SK-F for up to 120 h. Cell proliferation was measured using MTT assay. Columns, means of three independent experiments normalised to control; bars, SEM. (*p < 0.05; **p < 0.01; ^§p < 0.001). IC50 levels for SK-F for 72, 96 and 120 h were 7, 4.5 and 3 µM, respectively

The target in the next experiment is recombinant SK1 (Homo sapiens, UniProt Q9NYA1). Nature of the experiment: SK1 activity assay, cell-free (recombinant SK1 extract, radiolabelling). It is filed as biochemical. The method, then:
SK assay was performed using radiolabeling as previously described, in conditions favouring SK1 or SK2 activity as required.
The synthesised compounds were then screened for SK1 inhibition. Compounds SK-A to SK-F and SKI-II (commercial inhibitor of SK used as positive control with reported IC50 0.5 µM [14]) at 1 µM were incubated in the presence of recombinant SK1 extract (in excess), 1 µM of ATP, and exogenous 1 µM sphingosine for 1 h followed by measurement of SK1 activity.
Fig. 2 Inhibition of sphingosine kinase 1 in cell-free extract and in vitro. a 1 µM of compounds SK-A to SK-F and SKI-II (commercial inhibitor of SK used as a positive control) were incubated in the presence of recombinant SK1 extract (in excess), 1 µM of ATP, and 1 µM exogenous sphingosine for 1 h. b MDA-MB-231 cells were incubated with 1 µM of compounds SK-A to SK-F and SKI-II for 6 h. SK1 activity was measured as described in materials and methods. Columns, means of three independent experiments normalised to vehicle; bars, SEM. (ns, non-significant; *p < 0.05; **p < 0.01)
SK1 activity was determined in the presence of triton X-100 and SK2 activity was measured in the presence of high salt concentrations, conditions that favour SK1 and SK2, respectively. […] Km for SK1 was 6.97 ± 1.20 µM, Vmax 98 ± 4 µM/min/mg protein and Ki for SK-F 0.46 ± 0.1 µM. […] Some SK inhibitors such as SKI-II were previously shown to induce proteasomal degradation of SK1 [48, 49].

A further experiment relates to SK1 mRNA. The experiment is described as follows: SK1 mRNA expression by qRT-PCR in MDA-MB-231 cells. The conditions noted are these: 1, 2, 5 and 10 µM, 24 h. It is filed as cell-based, human. The protocol:
Isolation of total RNA from MDA-MB-231 cells was performed using the RNeasy Mini kit (Qiagen, Valencia, CA, USA) as per manufacturer’s instructions. RNA quantity and purity were measured using a NanoDrop ND-1000 Spectrophotometer (Thermo Fisher Scientific, Loughborough, UK). Reverse transcription was performed using precision nanoScript™ reverse transcription kit (PrimerDesign Ltd, Southampton, UK). qRT-PCR was done as already described. Ct values were exported and analysed using qbase software (Biogazelle NV, Zwijnaarde, Belgium).
Fig. 3 Effect of compounds SK-A to SK-F on SK1 mRNA levels. MDA-MB-231 cells were incubated with 1, 2, 5 and 10 µM of compounds SK-A to SK-F for 24 h. SK1 mRNA expression was measured by qRT-PCR. Columns, means of three independent experiments normalised to control; bars, SEM. (*p < 0.05; **p < 0.01)
(Real-time PCR tracks product formation cycle by cycle.)

Entries after “also recorded” stand apart in the source; their conditions may differ.

Chain of recombinant SK1 (Q9NYA1 whole entry): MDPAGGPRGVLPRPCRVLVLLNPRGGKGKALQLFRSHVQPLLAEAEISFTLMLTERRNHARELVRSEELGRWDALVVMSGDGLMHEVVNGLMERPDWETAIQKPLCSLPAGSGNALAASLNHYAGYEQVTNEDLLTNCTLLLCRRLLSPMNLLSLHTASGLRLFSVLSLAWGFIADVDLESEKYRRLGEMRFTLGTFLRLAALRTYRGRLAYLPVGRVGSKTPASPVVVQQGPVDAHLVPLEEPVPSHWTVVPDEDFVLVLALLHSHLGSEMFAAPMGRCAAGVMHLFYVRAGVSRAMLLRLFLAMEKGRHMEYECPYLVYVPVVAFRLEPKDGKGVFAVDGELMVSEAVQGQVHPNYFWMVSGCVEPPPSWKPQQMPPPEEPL

In the case of `CCCCCCCCc1ccc(NC(=O)c2ccccc2)cc1` [SK-F], in the experiment on MDA-MB-231 cells (1, 2, 5 and 10 µM, up to 120 h), the “effect on MDA-MB-231 cancer cell proliferation” value is reported as “highest effect”. Besides, the 50% inhibitory concentration (IC50) (in general, the concentration at which inhibition is half-maximal) in the experiment on MDA-MB-231 cells (MDA-MB-231, 72 h) stood at 7000 nM; in the experiment with MDA-MB-231 cells (MDA-MB-231, 96 h), 4500 nM; in the experiment on MDA-MB-231 cells (MDA-MB-231, 120 h), 3000 nM; at recombinant SK1 (Figure S7, read-out: IC50 for purified enzyme (SK1 activity dose response)), 920 nM. In addition, the “inhibition of SK1 activity in cell-free settings” value at recombinant SK1 (1 µM compound, recombinant SK1 extract in excess, 1 µM ATP, 1 µM sphingosine, 1 h) was “most potent inhibitor of SK1 activity; also recorded: statistically significant inhibition”. For the same compound, at recombinant SK1 (Lineweaver-Burk plot, increasing sphingosine (Figure S8A)), the “mode of SK1 inhibition” value is “competitive inhibitor”. In addition, on recombinant SK1 (recombinant SK1, increasing sphingosine, triton X-100, Lineweaver-Burk), the Ki – broadly, a dissociation constant, usually derived from enzyme kinetics or from competition with a known ligand – came to 460 ± 100 nM. Moreover, the “effect on SK1 mRNA expression” value with SK1 mRNA is recorded as “did not elicit any changes”.
